Results: patent US9302999B2, “Substituted triazoles as herbicides” (E. I. DU PONT DE NEMOURS AND COMPANY, priority 2012, dated 2016)

How the values were obtained:
Format in all cases: in vivo
[1] = test system: velvetleaf (Abutilon theophrasti); experiment: Test A pre-/postemergence: velvetleaf; conditions: for Velvetleaf plant response rating: Postemergence; for Plant response rating, Velvetleaf: Preemergence
Procedure, shortened: (§1)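 Soil medium was loam blended with sand; treatments pre- and postemergence were applied concurrently, postemergence at one- to two-leaf stage. Approximately ten days in greenhouse preceded visual comparison with untreated controls, scored 0 (no effect) to 100 (complete control).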

[2] = test system: sedge, umbrella (small-flower umbrella sedge, Cyperus difformis); experiment: Test C flooded paddy test: sedge, umbrella; conditions: scale 0 to 100 (0 no effect, 100 complete control)
Procedure, shortened: (§2)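 Plants were grown to the 2-leaf stage, pots flooded to 3 cm above soil, and test compounds applied directly to the paddy water, with that depth held throughout. After 13 to 15 days in a greenhouse, injury was visually rated against controls on a 0 (no effect) to 100 (complete control) scale.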

[3] = test system: ducksalad (Heteranthera limosa); experiment: Test C flooded paddy test: ducksalad; conditions: scale 0 to 100 (0 no effect, 100 complete control)
Procedure, shortened: as §2

[4] = test system: rice (Oryza sativa); experiment: Test C flooded paddy test: rice; conditions: scale 0 to 100 (0 no effect, 100 complete control)
Procedure, shortened: as §2

[5] = test system: crabgrass, large (large crabgrass, Digitaria sanguinalis); experiment: Test A pre-/postemergence: crabgrass, large; conditions: for Crabgrass, Large plant response rating: Postemergence; for Plant response rating, Crabgrass, Large: Preemergence
Procedure, shortened: as §1

[6] = test system: morningglory (Ipomoea spp.); experiment: Test A pre-/postemergence: morningglory; conditions: for Morningglory plant response rating: Postemergence; for Plant response rating, Morningglory: Preemergence
Procedure, shortened: as §1

[7] = test system: wheat (Triticum aestivum); experiment: Test A pre-/postemergence: wheat; conditions: for Wheat plant response rating: Postemergence; for Plant response rating, Wheat: Preemergence
Procedure, shortened: as §1

[8] = test system: corn (Zea mays); experiment: Test A pre-/postemergence: corn; conditions: for Corn plant response rating: Postemergence; for Plant response rating, Corn: Preemergence
Procedure, shortened: as §1

[9] = test system: barnyardgrass (Echinochloa crus-galli); experiment: Test A pre-/postemergence: barnyardgrass; conditions: for Barnyardgrass plant response rating: Postemergence; for Plant response rating, Barnyardgrass: Preemergence
Procedure, shortened: as §1

[10] = test system: barnyardgrass (Echinochloa crus-galli); experiment: Test C flooded paddy test: barnyardgrass; conditions: scale 0 to 100 (0 no effect, 100 complete control)
Procedure, shortened: as §2

[11] = test system: pigweed (Amaranthus retroflexus); experiment: Test A pre-/postemergence: pigweed; conditions: for Pigweed plant response rating: Postemergence; for Plant response rating, Pigweed: Preemergence
Procedure, shortened: as §1

[12] = test system: foxtail, giant (giant foxtail, Setaria faberii); experiment: Test A pre-/postemergence: foxtail, giant; conditions: for Foxtail, Giant plant response rating: Postemergence; for Plant response rating, Foxtail, Giant: Preemergence
Procedure, shortened: as §1

[13] = 125 g ai/ha, 0 to 100 scale, 0 is no effect, 100 is complete control
[14] = 500 g ai/ha, visual rating on 0 to 100 scale (0 no effect, 100 complete control), approximately ten days
[15] = 125 g ai/ha, 0 to 100 scale where 0 is no effect and 100 is complete control
[16] = 500 g ai/ha, 0 to 100 scale, 0 is no effect, 100 is complete control
[17] = Flood (flooded paddy test), 125 g ai/ha, visual rating after 13 to 15 days
[18] = Flood (flooded paddy test), 250 g ai/ha, visual rating after 13 to 15 days
[19] = 125 g ai/ha, 0 to 100 scale (0 no effect, 100 complete control)

Cc1nn(-c2ccc(Br)cc2)nc1C(=O)c1cccc(C(F)(F)F)c1 [Compound 92]
30: Crabgrass, Large plant response rating [5, 14] | Morningglory plant response rating [6, 14] | Pigweed plant response rating [11, 13]
20: Velvetleaf plant response rating [1, 13] | Velvetleaf plant response rating [1, 14] | Foxtail, Giant plant response rating [12, 14] | Plant response rating, Foxtail, Giant [12, 16]
90: Pigweed plant response rating [11, 14]
0: Plant response rating, Velvetleaf [1, 15] | Plant response rating, Velvetleaf [1, 16] | Plant response rating, Sedge, Umbrella [2, 17] | Plant response rating, Sedge, Umbrella [2, 18] | Plant response rating, Sedge, Umbrella ([2]; Flood, 31 g ai/ha) | Plant response rating, Sedge, Umbrella ([2]; Flood, 62 g ai/ha) | Plant response rating, Ducksalad [3, 17] | Plant response rating, Ducksalad [3, 18] | Plant response rating, Ducksalad ([3]; Flood, 31 g ai/ha) | Plant response rating, Ducksalad ([3]; Flood, 62 g ai/ha) | Plant response rating, Rice [4, 17] | Plant response rating, Rice [4, 18] | Plant response rating, Rice ([4]; Flood, 31 g ai/ha) | Plant response rating, Rice ([4]; Flood, 62 g ai/ha) | Plant response rating, Morningglory [6, 15] | Plant response rating, Morningglory [6, 16] | Wheat plant response rating [7, 13] | Plant response rating, Wheat [7, 15] | Plant response rating, Wheat [7, 16] | Plant response rating, Corn [8, 19] | Plant response rating, Corn [8, 16] | Barnyardgrass plant response rating [9, 13] | Plant response rating, Barnyardgrass [9, 19] | Plant response rating, Barnyardgrass [9, 16] | Plant response rating, Barnyardgrass [10, 17] | Plant response rating, Barnyardgrass [10, 18] | Plant response rating, Barnyardgrass ([10]; Flood, 31 g ai/ha) | Plant response rating, Barnyardgrass ([10]; Flood, 62 g ai/ha) | Plant response rating, Pigweed [11, 15]
10: Crabgrass, Large plant response rating [5, 13] | Plant response rating, Crabgrass, Large [5, 19] | Morningglory plant response rating [6, 13] | Wheat plant response rating [7, 14] | Corn plant response rating [8, 13] | Corn plant response rating [8, 14] | Barnyardgrass plant response rating [9, 14] | Plant response rating, Pigweed [11, 16] | Foxtail, Giant plant response rating [12, 13] | Plant response rating, Foxtail, Giant [12, 15]
40: Plant response rating, Crabgrass, Large [5, 16]

CSc1ccc(-n2nc(C)c(C(=O)c3cccc(C(F)(F)F)c3)n2)cc1 [Compound 93]
0: Plant response rating, Velvetleaf [1, 15] | Plant response rating, Velvetleaf [1, 16] | Plant response rating, Sedge, Umbrella [2, 17] | Plant response rating, Sedge, Umbrella [2, 18] | Plant response rating, Sedge, Umbrella ([2]; Flood, 31 g ai/ha) | Plant response rating, Sedge, Umbrella ([2]; Flood, 62 g ai/ha) | Plant response rating, Ducksalad [3, 17] | Plant response rating, Ducksalad [3, 18] | Plant response rating, Ducksalad ([3]; Flood, 31 g ai/ha) | Plant response rating, Ducksalad ([3]; Flood, 62 g ai/ha) | Plant response rating, Rice [4, 17] | Plant response rating, Rice [4, 18] | Plant response rating, Rice ([4]; Flood, 31 g ai/ha) | Plant response rating, Rice ([4]; Flood, 62 g ai/ha) | Plant response rating, Crabgrass, Large [5, 19] | Plant response rating, Crabgrass, Large [5, 16] | Morningglory plant response rating [6, 13] | Plant response rating, Morningglory [6, 15] | Plant response rating, Morningglory [6, 16] | Wheat plant response rating [7, 13] | Wheat plant response rating [7, 14] | Plant response rating, Wheat [7, 15] | Plant response rating, Wheat [7, 16] | Plant response rating, Corn [8, 19] | Plant response rating, Corn [8, 16] | Barnyardgrass plant response rating [9, 13] | Plant response rating, Barnyardgrass [9, 19] | Plant response rating, Barnyardgrass [9, 16] | Plant response rating, Barnyardgrass [10, 17] | Plant response rating, Barnyardgrass [10, 18] | Plant response rating, Barnyardgrass ([10]; Flood, 31 g ai/ha) | Plant response rating, Barnyardgrass ([10]; Flood, 62 g ai/ha) | Plant response rating, Pigweed [11, 15] | Plant response rating, Pigweed [11, 16] | Plant response rating, Foxtail, Giant [12, 15] | Plant response rating, Foxtail, Giant [12, 16]
10: Velvetleaf plant response rating [1, 13] | Crabgrass, Large plant response rating [5, 13] | Morningglory plant response rating [6, 14] | Corn plant response rating [8, 13] | Corn plant response rating [8, 14] | Barnyardgrass plant response rating [9, 14] | Pigweed plant response rating [11, 13] | Foxtail, Giant plant response rating [12, 13] | Foxtail, Giant plant response rating [12, 14]
20: Velvetleaf plant response rating [1, 14] | Crabgrass, Large plant response rating [5, 14] | Pigweed plant response rating [11, 14]
